According to patent publication US20240294551A1 (AMGEN INC., priority 2022, published 2024):
Where two headings read alike, the source gives them in different places.

Key:
AsPC-1 cells = assay: AsPC-1 CTG Assay (CellTiter-Glo cell viability); assay type: cell-based, human; settings: first value of the cell, read-out: G12D/C/V Cell Proliferation CTG (72 h) AsPC-1
Summary of the method: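 IC50 values derive from 4-parameter logistic fits of CellTiter-Glo luminescence, expressed relative to DMSO. Compound dilution series were applied to overnight-seeded AsPC-1 or SW620 cells (RPMI 1640, 10% FBS) for 72 h at 37 °C, 5% CO2.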

[1] = target: His-tagged KRAS G12D protein (Homo sapiens (Human), UniProt P01116, G12D); assay: KRAS G12D TR-FRET Assay; assay type: binding
Chain of His-tagged KRAS G12D protein (P01116 other isoform, or with tags, fused parts or gaps G12D): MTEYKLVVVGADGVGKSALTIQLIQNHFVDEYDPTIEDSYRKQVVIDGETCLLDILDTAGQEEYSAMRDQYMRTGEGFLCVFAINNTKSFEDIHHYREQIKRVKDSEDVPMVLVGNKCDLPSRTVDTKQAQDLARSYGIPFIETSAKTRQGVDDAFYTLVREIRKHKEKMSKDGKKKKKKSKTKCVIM
Summary of the method: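 Each incubation ran at room temperature: enzyme with compound for 30 minutes, peptide for one hour, and detection reagents (0.4 nM europium anti-6×His, 5 nM streptavidin-d2) for one hour more. Protein and peptide stocks were each diluted to 20 nM before addition.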

[2] = target: GDP-bound KRAS protein (aa 1-169), containing both G12D and C118A amino acid substitutions (Homo sapiens (Human), UniProt P01116, C118A/G12D); assay: KRAS G12D Coupled Nucleotide Exchange Assay; assay type: biochemical
Chain of GDP-bound KRAS protein (aa 1-169), containing both G12D and C118A amino acid substitutions (P01116 other isoform, or with tags, fused parts or gaps G12D/C118A): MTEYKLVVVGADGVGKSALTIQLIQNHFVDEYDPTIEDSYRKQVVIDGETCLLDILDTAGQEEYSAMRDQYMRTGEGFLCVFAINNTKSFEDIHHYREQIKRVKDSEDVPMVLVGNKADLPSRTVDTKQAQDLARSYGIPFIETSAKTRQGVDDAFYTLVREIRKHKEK

[3] = test system: Phosphorylation of ERK1/2 in AsPC-1 cells; assay: Phospho-ERK1/2 MSD Assay; assay type: cell-based, human
Summary of the method: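 Read-out: MSD electrochemiluminescent detection of phosphorylated ERK1/2 in whole-cell lysates, fitted to a 4-parameter logistic curve for IC50. Prior to lysis, AsPC-1 cells (25,000 per well) received a 2 h compound dose-response at 37 °C.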

[4] = Homo sapiens, ASPC1, 72 h, AsPC-1, 72 h
[5] = read-out: KRAS G12D Binding IC50
[6] = read-out: KRAS G12D Coupled Exchange IC50
[7] = Homo sapiens, ASPC1, 2 h, read-out: 2 h p-ERK (AsPC-1 cells), IC50
[8] = 2 h, read-out: 2 h p-ERK (AsPC-1 cells), IC50
[9] = Homo sapiens, ASPC1, 72 h, AsPC-1 cells (G12D), 72 h
[10] = TR-FRET, read-out: KRAS G12D Binding
[11] = 2 hours compound pre-incubation, read-out: KRAS G12D Coupled Exchange
[12] = Homo sapiens, ASPC1, 2 h, read-out: 2 h p-ERK (AsPC-1 cells)

For `C[C@@H]1CN(c2nc3c4cnc(c(F)c4n2)-c2c(c(Cl)cc4[nH]ncc24)CCCOC(=O)O[C@@H]2COCCN3C2)CCN1` [Example 348, (26S)-18-chloro-32-fluoro-4-((3R)-3-methyl-1-piperazinyl)-23,25,28-trioxa-1,3,5,9,14,15-hexaazahexacyclo[24.4.1.1~6,10~.0~2,7~.0~11,19~.0~12,16~]dotriaconta-2,4,6,8,10(32),11,13,16,18-nonaen-24-one], the IC50 (AsPC-1 cells; [4]) was 2220 nM, the IC50 [1, 5] was 13 nM and the IC50 [2, 6] was 4 nM. The IC50 [3, 7] was 298 nM.
Compound `C[C@@]12CCCN(C1)c1nc(OC[C@@]34CCCN3C[C@H](F)C4)nc3c(F)c(ccc13)-c1cc(O)cc3ccc(F)c(c13)CCCC(=O)N2` [Example 16, (15R)-22,31-Difluoro-8-(((2R,7aS)-2-fluorotetrahydro-1H-pyrrolo[1,2-a]pyrrol-7a(5H)-yl)methoxy)-27-hydroxy-15-methyl-7,9,11,16-tetraazahexacyclo[19.7.1.1˜2,6˜.1˜11,15˜.0˜5,10˜.0˜25,29˜]hentriaconta-1(28),2(31),3,5,7,9,21,23,25(29),26-decaen-17-one bis(2,2,2-trifluoroacetate)] has an IC50 (AsPC-1 cells; [4]) of 1200 nM, an IC50 [1, 5] of 6 nM and an IC50 [2, 6] of 5 nM. It also gave an IC50 [3, 7] of 92 nM.
`Cc1cc2[nH]ncc2c2c1CCCOC(=O)O[C@H]1CN(CC[C@H]1C)c1nc(OC[C@@]34CCCN3C[C@H](F)C4)nc3c(F)c-2ncc13` [Example 94, (17R,18R)-30-fluoro-24-(((2R,7aS)-2-fluorotetrahydro-1H-pyrrolo[1,2-a]pyrrol-7a(5H)-yl)methoxy)-9,18-dimethyl-14,16-dioxa-5,6,21,23,25,29-hexaazahexacyclo[24.3.1.1~17,21~.0~2,10~.0~3,7~.0~22,27~]hentriaconta-1(30),2,4,7,9,22,24,26,28-nonaen-15-one] was tested, and the IC50 (AsPC-1 cells; [4]) was 1000 nM, the IC50 [1, 5] was 10 nM and the IC50 [2, 6] was 6 nM. For the same compound, the IC50 [3, 7] was 222 nM.
`O[C@@H]1C[C@@H]2CN(C1)c1nc(OC[C@@]34CCCN3C[C@H](F)C4)nc3c(F)c(ncc13)-c1c(c(Cl)cc3[nH]ncc13)CCCn1ncc2n1` (single isomer, unassigned) [Example 299] was tested, and the IC50 (AsPC-1 cells; AsPC-1, 72 h) was 5000 nM, the IC50 [1, 5] was 30 nM and the IC50 [2, 6] was 21 nM. It also gave an IC50 [3, 8] of 467 nM.
With `Cc1cc2[nH]ncc2c2c1CCCOC(=O)C[C@@H]1CCCN(C1)c1nc(OC[C@@]34CCCN3C[C@H](F)C4)nc3c(F)c-2ncc13` [Example 40] the IC50 (AsPC-1 cells; [4]) was 90 nM, the IC50 [1, 5] was 5 nM and the IC50 [2, 6] was 3 nM. For the same compound, the IC50 [3, 7] was 8 nM.
`O=C1OCCCc2c(Cl)cc3[nH]ncc3c2-c2ncc3c(nc(OC[C@@]45CCCN4C[C@H](F)C5)nc3c2F)N2CCOCC3(CC(C3)O1)C2` [Example 313] gave an IC50 (AsPC-1 cells; [4]) of 1210 nM, an IC50 [1, 5] of 19 nM and an IC50 [2, 6] of 11 nM. For the same compound, the IC50 [3, 7] was 462 nM.
`CN(C)CC1(COc2nc3c4cnc(c(F)c4n2)-c2c(c(Cl)cc4[nH]ncc24)CCCCC(=O)N2CC[C@@H]4CCN3C[C@@H]42)CC1` [Example 268, (28S,32R)-18-chloro-4-((1-((dimethylamino)methyl)cyclopropyl)methoxy)-33-fluoro-1,3,5,9,14,15,25-heptaazaheptacyclo[23.5.2.1~6,10~.0~2,7~.0~11,19~.0~12,16~.0~28,32~]tritriaconta-2,4,6,8,10(33),11,13,16,18-nonaen-24-one] was tested, and the IC50 (AsPC-1 cells; [4]) was 1350 nM, the IC50 [1, 5] was 7 nM and the IC50 [2, 6] was 4 nM. The IC50 [3, 7] was 246 nM.
`CN1CCC[C@H]1COc1nc2c3cnc(c(F)c3n1)-c1cc(O)cc3ccc(F)c(c13)CCOC(=O)O[C@]1(C)COCCN2C1` [Example 344, (16S)-23,32-difluoro-28-hydroxy-16-methyl-8-(((2S)-1-methyl-2-pyrrolidinyl)methoxy)-14,17,19-trioxa-3,7,9,11-tetraazahexacyclo[20.7.1.1~2,6~.1~11,16~.0~5,10~.0~26,30~]dotriaconta-1(30),2(32),3,5,7,9,22,24,26,28-decaen-18-one] was tested, and the IC50 (AsPC-1 cells; [4]) was 156 nM, the IC50 [1, 5] was 8 nM and the IC50 [2, 6] was 3 nM. It also gave an IC50 [3, 7] of 5.7 nM.
`Cc1cc2[nH]ncc2c2c1CCCOC(=O)O[C@H]1CN(CC[C@H]1F)c1nc(OC[C@@]34CCCN3C[C@H](F)C4)nc3c(F)c-2ncc13` (racemic) [Example 93] gave an IC50 (AsPC-1 cells; [4]) of 1250 nM, an IC50 [1, 5] of 14 nM and an IC50 [2, 6] of 5 nM. The IC50 [3, 7] was 180 nM.
`Cc1c2ncc3c(nc(OC[C@@]45CCCN4C[C@H](F)C5)nc13)N1CCOC[C@H](C1)OC(=O)OCCCc1c(Cl)cc3[nH]ncc3c1-2` (atropisomer, axis not shown) [Example 341, (26S)-18-chloro-4-(((2R,7aS)-2-fluorotetrahydro-1H-pyrrolo[1,2-a]pyrrol-7a(5H)-yl)methoxy)-32-methyl-23,25,28-trioxa-1,3,5,9,14,15-hexaazahexacyclo[24.4.1.1~6,10~.0~2,7~.0~11,19~.0~12,16~]dotriaconta-2,4,6,8,10(32),11,13,16,18-nonaen-24-one] showed an IC50 (AsPC-1 cells; AsPC-1, 72 h) of 889 nM, an IC50 [1, 5] of 10 nM and an IC50 [2, 6] of 6 nM. For the same compound, the IC50 [3, 8] was 65.5 nM.
Work on `Fc1c2ncc3c(nc(OC[C@@]45CCCN4C[C@H](F)C5)nc13)N1CCC[C@@H](CCOCCCc3c(Cl)cc4[nH]ncc4c3-2)C1` [Example 139] yielded an IC50 (AsPC-1 cells; [4]) of 910 nM, an IC50 [1, 5] of 6 nM and an IC50 [2, 6] of 3 nM. The IC50 [3, 7] was 114 nM.
Compound `O=C1OCCCc2c(Cl)cc(O)cc2-c2ncc3c(nc(OC[C@@]45CCCN4C[C@H](F)C5)nc3c2F)N2CCOC[C@H](C2)O1` [Example 355, (23S)-15-chloro-29-fluoro-4-(((2R,7aS)-2-fluorotetrahydro-1H-pyrrolo[1,2-a]pyrrol-7a(5H)-yl)methoxy)-13-hydroxy-20,22,25-trioxa-1,3,5,9-tetraazapentacyclo[21.4.1.1~6,10~.0~2,7~.0~11,16~]nonacosa-2,4,6,8,10(29),11,13,15-octaen-21-one] has an IC50 (AsPC-1 cells; [4]) of 82 nM, an IC50 [1, 5] of 2 nM and an IC50 [2, 6] of 1 nM. The IC50 [3, 7] was 5.2 nM.
`O=C1N[C@@H]2CC[C@H](O)CN(C2)c2nc(OC[C@@]34CCCN3C[C@H](F)C4)nc3c(F)c(ncc23)-c2c(c(Cl)cc3[nH]ncc23)CCCO1` (racemic) [Example 282, (26R,29S)-18-chloro-32-fluoro-4-(((2R,7aS)-2-fluorotetrahydro-1H-pyrrolo[1,2-a]pyrrol-7a(5H)-yl)methoxy)-29-hydroxy-23-oxa-1,3,5,9,14,15,25-heptaazahexacyclo[24.4.1.1~6,10~.0~2,7~.0~11,19~.0~12,16~]dotriaconta-2,4,6(32),7,9,11,13,16,18-nonaen-24-one] gave an IC50 (AsPC-1 cells; [4]) of 1190 nM, an IC50 [1, 5] of 7 nM and an IC50 [2, 6] of 3 nM. For the same compound, the IC50 [3, 7] was 133 nM.
Compound `CN1C(=O)CC[C@@H]2C[C@@H]2c2c(Cl)cc3[nH]ncc3c2-c2ncc3c(nc(OC[C@@]45CCCN4C[C@H](F)C5)nc3c2F)N2CCC[C@@H]1C2` [Example 128, (11S,13R,18R)-9-Chloro-31-fluoro-25-(((2R,7aS)-2-fluorotetrahydro-1H-pyrrolo[1,2-a]pyrrol-7a(5H)-yl)methoxy)-17-methyl-5,6,17,22,24,26,30-heptaazaheptacyclo[25.3.1.1˜18,22˜.0˜2,10˜.0˜3,7˜.0˜11,13˜.0˜23,28˜]dotriaconta-1(31),2,4,7,9,23,25,27,29-nonaen-16-one bis (2,2,2-trifluoroacetate)] has an IC50 (AsPC-1 cells; [4]) of 1260 nM, an IC50 [1, 5] of 68 nM and an IC50 [2, 6] of 46 nM. For the same compound, the IC50 [3, 7] was 248 nM.
Compound `Fc1c2ncc3c(nc(OC[C@@]45CCCN4C[C@H](F)C5)nc13)N1CCO[C@@H](Cc3ncc(o3)CCc3c(Cl)cc4[nH]ncc4c3-2)C1` [Example 374] has an IC50 (AsPC-1 cells; [9]) of 127 nM, an IC50 [1, 10] of 5 nM and an IC50 [2, 11] of 4 nM. It also gave an IC50 [3, 12] of 32.7 nM.
Work on `Cc1cc2[nH]ncc2c2c1CCCCC(=O)N1CC[C@@H]3CCN(C[C@@H]31)c1nc(OC[C@@]34CCCN3C[C@H](F)C4)nc3c(F)c-2ncc13` (mixture of isomers) [Example 63] yielded an IC50 (AsPC-1 cells; [4]) of 460 nM, an IC50 [1, 5] of 9 nM and an IC50 [2, 6] of 2 nM. The IC50 [3, 7] was 59 nM.
Compound `CC12COCCN(C1)c1nc(OC[C@@]34CCCN3C[C@H](F)C4)nc3c(F)c(ncc13)-c1c(c(Cl)cc3[nH]ncc13)CCCc1nc2no1` (mixture of isomers) [Example 379] has an IC50 (AsPC-1 cells; [9]) of 404 nM, an IC50 [1, 10] of 9 nM and an IC50 [2, 11] of 3 nM. The IC50 [3, 12] was 85.3 nM.
In the case of `O=C1N[C@@H]2CCCCN(C2)c2nc(OC[C@@]34CCCN3C[C@H](F)C4)nc3c(F)c(ncc23)-c2c(c(Cl)cc3[nH]ncc23)CCCO1` [Example 256, (26R)-18-chloro-32-fluoro-4-(((2R,7aS)-2-fluorotetrahydro-1H-pyrrolo[1,2-a]pyrrol-7a(5H)-yl)methoxy)-23-oxa-1,3,5,9,14,15,25-heptaazahexacyclo[24.4.1.1~6, 10~.0~2,7~.0~11,19~.0~12,16~]dotriaconta-2,4,6(32),7,9,11,13,16,18-nonaen-24-one], the IC50 (AsPC-1 cells; [4]) is reported as 229 nM, the IC50 [1, 5] is reported as 4 nM and the IC50 [2, 6] is reported as 5 nM. It also gave an IC50 [3, 7] of 9.4 nM.
